Where two headings read alike, the source gives them in different places. Starred links: 1 amine or outer side, 2 acyl side, 3 side chain; linkers in the order of their positions; H or OH if unused. Positions of bridges follow the written chain, without caps; N, C: chain ends. Non-standard residues stand in square brackets, D forms with d. Residues, ends and D or L forms follow the SMILES beside them. *: point of attachment. Orn(4R-OH,5R-OH) = O=C([C@H](C[C@@H](O)[C@@H](O)N[*:3])N[*:1])[*:2]; hTyr(3S-OH,4S-OH) = N[C@H](C(=O)O)[C@H](O)[C@@H](O)c1ccc(O)cc1; Pro(3S-OH,4S-Me) = C[C@H]1CN[C@H](C(=O)O)[C@H]1O; Benzoyl(4-octyloxy) = CCCCCCCCOc1ccc(C(=O)*)cc1; Hyp = O=C(O)[C@@H]1C[C@@H](O)CN1
Tests used:
Experiment in all cases: Antifungal susceptibility testing, pH 7.0/35° C., 1x10^3 cells/mL
C.tropicalis = type: cell-based; conditions: Candida tropicalis
Experimental: (§1) 2) Assay at pH 7.0/35° C. Incubation/(Candida Strains Only).
(§2) Based on several papers published during 1990-1993 regarding the standardization of testing procedures at multiple research centers, and the finding that, inoculum size, pH of media, and the temperature of incubation drastically affect the antifungal activity of several compounds, particularly in the Azole class of antifungals, an additional assay was configured at pH 7.0 for Candida albicans. [M. A. Pfaller et al, Antimicrobial Agents and Chemotherapy, 34, 1648-1654 (1990); F. C. Odds et al, Antimicrobial Agents and Chemotherapy, 36, 1727-1737 (1992); R. A. Cook et al, Antimicrobial Agents and Chemotherapy, 34, 1542-1545 (1990)]
(§3) The assay format is identical to the first one with the following modifications: C.albicans cells are diluted to 1×10^3 cells/ml into 2× buffered YNB (YNB buffered with 1.65 mM MOPS, pH 7.0, with the addition of 2% Dextrose and 0.08% casamino acids mixture, bio 101. inc,cat #10420-100). Incubation is carried out at 35° C. instead of 30° C., and cell growth is monitored at 590 nm at 24 and 48 hrs as described. All other aspects of the assay are identical. This assay was validated with amphotericin B, fluconazole, cilofungin (Ly-121019), Nikkomycin and terbinafine using the following Candida strains- (C.albicans, B311, C.parasilosis, C.tropicalis, C.lusitaniae, C.glabrata, and C. albicans 516)-Table II. All strains were from Dr. Kobayashi, Washington university.

C.parasilosis = type: cell-based
Experimental: as §1, §2, §3

C.albicans, B311 = type: cell-based; conditions: Candida albicans
Experimental: as §1, §2, §3

C.lusitaniae = type: cell-based; conditions: Clavispora lusitaniae
Experimental: as §1, §2, §3

C.glabrata = type: cell-based; conditions: Nakaseomyces glabratus
Experimental: as §1, §2, §3

C. albicans 516 = type: cell-based, Candida albicans
Experimental: as §1, §2, §3

[1] = pH 7.0/35° C./1x10^3 cells/mL, 48 hrs, read-out: EC50 - 48 HRS C.trop.
[2] = pH 7.0/35° C./1x10^3 cells/mL, 48 hrs, read-out: EC50 - 48 HRS C.para
[3] = B311, pH 7.0/35° C./1x10^3 cells/mL, 48 hrs, read-out: EC50 - 48 HRS C.albicans
[4] = pH 7.0/35° C./1x10^3 cells/mL, 48 hrs, read-out: EC50 - 48 HRS C.lusi.
[5] = pH 7.0/35° C./1x10^3 cells/mL, 48 hrs, read-out: EC50 - 48 HRS C.glab.
[6] = Candida albicans, 516, pH 7.0/35° C./1x10^3 cells/mL, 48 hrs, read-out: EC50 - 48 HRS C.albicans (516)

Structure (SMILES) | EC50 (C.tropicalis; [1]) | EC50 (C.parasilosis; [2]) | EC50 (C.albicans, B311; [3]) | EC50 (C.lusitaniae; [4]) | EC50 (C.glabrata; [5]) | EC50 (C. albicans 516; [6]) | EC50 (C.tropicalis; pH 7, read-out: EC50 - 48 HRS C.trop.) | EC50 (C.parasilosis; pH 7, read-out: EC50 - 48 HRS C.para) | EC50 (C.albicans, B311; B311, pH 7, read-out: EC50 - 48 HRS C.albicans) | EC50 (C.lusitaniae; pH 7, read-out: EC50 - 48 HRS C.lusi.) | EC50 (C.glabrata; pH 7, read-out: EC50 - 48 HRS C.glab.) | EC50 (C. albicans 516; Candida albicans, 516, pH 7, read-out: EC50 - 48 HRS C.albicans (516))
OC(Cn1cncn1)(Cn1cncn1)c1ccc(F)cc1F [Fluconazole, fluconazole] | 2.6 µg/mL | 0.91 µg/mL | 0.71 µg/mL | 0.6 µg/mL | 26 µg/mL | 0.65 µg/mL | – | – | – | – | – | –
CCCCCCCCOc1ccc(C(=O)N[C@H]2C[C@@H](O)[C@@H](O)NC(=O)[C@@H]3[C@@H](O)[C@@H](C)CN3C(=O)[C@H]([C@@H](C)O)NC(=O)[C@H]([C@H](O)[C@@H](O)c3ccc(O)cc3)NC(=O)[C@@H]3C[C@@H](O)CN3C(=O)[C@H]([C@@H](C)O)NC2=O)cc1 [Ly 12109, cilofungin] ({Benzoyl(4-octyloxy)}-[Orn(4R-OH,5R-OH)]T[Hyp][hTyr(3S-OH,4S-OH)]T[Pro(3S-OH,4S-Me)]; lactam 1-C) | 0.6 µM | 32 µM | 0.6 µM | 6.6 µM | 6.1 µM | 0.6 µM | – | – | – | – | – | –
C[C@@H]([C@H](N)C(=O)N[C@H](C(=O)O)[C@H]1O[C@@H](n2ccc(=O)[nH]c2=O)[C@H](O)[C@@H]1O)[C@H](O)c1ccc(O)cn1 [Nikkomycin] | – | – | – | – | – | – | > 100 µM | 13 µM | 4.5 µM | 28 µM | > 100 µM | 11 µM
CN(C/C=C/C#CC(C)(C)C)Cc1cccc2ccccc12 [Terbinafine, terbinafine] | > 100 µM | 0.2 µM | 4.4 µM | 0.4 µM | > 100 µM | 3.2 µM | – | – | – | – | – | –
